Data published in PubChem BioAssay (NCI).
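Grown in 96-well plates, cells were treated for 48 hours with each compound at five concentrations. Insufficient inhibition: endpoint recorded as highest concentration tested. GI50: concentration for 50% inhibition of growth. TGI marks complete inhibition of growth.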

Legend:
Experiment in all cases: NCI anticancer screen, dose series, 48 h
SN12C renal = test system: SN12C renal
OVCAR-3 ovarian = test system: OVCAR-3 ovarian
MDA-MB-231 breast = test system: MDA-MB-231 breast
SK-MEL-28 melanoma = test system: SK-MEL-28 melanoma
HCT-15 colon = test system: HCT-15 colon
SK-MEL-5 melanoma = test system: SK-MEL-5 melanoma
U251 CNS = test system: U251 CNS
CCRF-CEM leukemia = test system: CCRF-CEM leukemia
SNB-75 CNS = test system: SNB-75 CNS
A498 renal = test system: A498 renal

SMILES	GI50 (SN12C renal) [µM]	TGI (SN12C renal) [µM]	GI50 (OVCAR-3 ovarian) [µM]	TGI (OVCAR-3 ovarian) [µM]	GI50 (MDA-MB-231 breast) [µM]	TGI (MDA-MB-231 breast) [µM]	GI50 (SK-MEL-28 melanoma) [µM]	TGI (SK-MEL-28 melanoma) [µM]	GI50 (HCT-15 colon) [µM]	TGI (HCT-15 colon) [µM]	GI50 (SK-MEL-5 melanoma) [µM]	TGI (SK-MEL-5 melanoma) [µM]	GI50 (U251 CNS) [µM]	TGI (U251 CNS) [µM]	GI50 (CCRF-CEM leukemia) [µM]	TGI (CCRF-CEM leukemia) [µM]	TGI (SNB-75 CNS) [µM]	TGI (A498 renal) [µM]	GI50 (A498 renal) [µM]	GI50 (SNB-75 CNS) [µM]
CCN(CC)CCOc1ccc(/C=C2\C[C@H]3[C@H]4CC=C5C[C@@H](O)CC[C@]5(C)[C@H]4CC[C@]3(C)[C@H]2O)cc1OC	6.78	14	7.96	17.8	6.94	14.2	7.74	> 50	9.19	18.5	0.625	11.1	9.53	17.3						
O=C(NNc1ccc(F)cc1)C1CCC(CNS(=O)(=O)c2ccc(Cl)c(Cl)c2)CC1 (centres undefined)	7.97	> 50	2.11	13.9	3.17	25.4	> 50	> 50	7.63	> 50	10.8	33.1	10.3	> 50	16.1	> 50				
C/C=C(/CCC1NCCC2c3ccccc3NC12)[Si](C)(C)C (centres undefined)		23.9		24				16.9		24.9		26		25.4		57	21.4			
CN(C)CCC(CCN(C)C)=NOC(=O)c1ccccc1		> 100		> 100				> 100		> 100		> 100		> 100		> 100	> 100	> 100		
NC(=O)c1ncn(CCN2CCN(C(=O)NCCCCCCNC(=O)N3CCN(CCn4cnc(C(N)=O)c4N)CC3)CC2)c1N		> 100		> 100				> 100		> 100		> 100		> 100		> 100	> 100			
Cc1cc(Cl)ccc1NC(=O)CCCC(=O)C1CCC/C1=N\NC(=O)CC#N (centres undefined)		> 100		> 100				> 100		> 100		> 100		> 100		> 100	> 100	> 100		
COc1cccc(NC(=O)C(C)(C)C)c1SSc1c(NC(=O)C(C)(C)C)cccc1OC		> 54.9		> 100				> 57.9		44.4		> 100		35.1		> 89.5	> 74.4	> 100		
O=C(CC1(O)C(=O)Nc2ccccc21)c1ccc(F)cc1 (centres undefined)		> 100		> 100				> 100		> 100		> 100					> 100	> 100		
COc1ccc(-c2nc(Nc3ccc(-c4nc5ccccc5[nH]4)cc3)nc(N3CCOCC3)n2)cc1	3.19	23			1.63	4.76	1.8	4.28	1.67	4.78	1.79	3.36	2.04	13.6	3.11	> 100	10.5	3.57	1.52	1.8
COC(=O)C1=Cc2cc(OC)c(OC)cc2[C@H](c2ccc(OC)c(OC)c2)C1C(=O)OC (some centres undefined)		> 100		> 100				> 100		> 100		> 100		> 100		> 100	> 100	> 100		
Cn1c(=O)c2ccc(-c3ccc(Br)cc3)nc2n(C)c1=O				> 100				> 100		> 100		> 100		> 100		> 100	73.5	> 100		
COC(=O)C[CH2][Ge]([CH3])([CH3])[S]c1ccccc1	18.3	37.2	29.9	> 100			36	> 100	15.4	28.8	32.6	> 100	17.7	44.1	5.27	24.3	> 100			31.4
O=C(/C=C/c1ccccc1Cl)c1cccc2ccccc12		> 100		15				28.1		17.2		34		8.45		45.2	18.3	27.5		
CC(=O)[CH-]C(=O)c1ccccc1.CC(=O)[CH-]C(=O)c1ccccc1.CC[C@H](/C=C/C(C)[C@H]1CCC2[C@@H]3CC=C4C[C@@H]([O-])CC[C@]4(C)C3CC[C@@]21C)C(C)C.CC[O-].[Ti+4] (some centres undefined)	> 100	> 100	> 100	> 100			> 100	> 100	> 100	> 100	> 100	> 100	> 100	> 100	61.4	> 100	> 100	> 100	> 100	22.4
COc1ccc2c(c1)C1OCCNC1CC2 (centres undefined)		> 100				> 100		> 100		> 100		> 100		> 100		> 100	> 100	> 100		
Cc1ccc(NC(=O)CC/C(CC(=O)C(C)(C)C)=N/NC(=O)C[N+](C)(C)C)cc1C		> 100		> 100				> 100		> 100		> 100		> 100		> 100				
NCCCCCCCCCCCn1c2c(c3ccccc3c1=O)C(=O)c1ccccc1-2	1.98	3.61	2.1	5.96	3.75	15.2	2.27	4.82	5.58	19.4	10.3	29.5	10.2	27.1			7.68	36.3	12.4	2.95
Cc1cc(=O)n2c3c(c4c(cc13)c(CO)cc(=O)n4C)OC2		> 100		40.1				78.7				75.3		> 100		56.8	70.5	72.5		
c1ccc(CN2CCC3(CC2)SSC2(CCN(Cc4ccccc4)CC2)SS3)cc1		> 100		> 100		> 100		> 100		> 100		> 100		> 100			> 100	> 100		
